# Target: T1, Human GO (Homo sapiens, UniProt Q9UJM8)
# T1 construct: purchased Novus Biologicals NBP1-72412
# T1 sequence (Q9UJM8 1-370): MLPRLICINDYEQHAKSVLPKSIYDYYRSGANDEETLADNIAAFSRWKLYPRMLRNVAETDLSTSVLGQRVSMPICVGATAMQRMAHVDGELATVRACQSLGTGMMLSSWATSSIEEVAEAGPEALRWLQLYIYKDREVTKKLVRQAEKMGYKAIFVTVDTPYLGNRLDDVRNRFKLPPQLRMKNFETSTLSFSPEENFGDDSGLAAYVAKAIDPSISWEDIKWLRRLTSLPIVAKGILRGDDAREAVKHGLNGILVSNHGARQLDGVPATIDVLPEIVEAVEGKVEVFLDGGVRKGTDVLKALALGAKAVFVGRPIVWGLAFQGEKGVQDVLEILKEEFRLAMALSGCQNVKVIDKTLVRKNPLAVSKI
# Experiment: GO enzymatic assay (coupled fluorescence/HRP assay, glycolate substrate)
# Format: biochemical
# Settings: not given
# How it was run: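 Human GO incubated with glycolate substrate in 50 mM potassium phosphate, pH 7, with varying inhibitor concentrations. Activity read by coupled HRP fluorescence. IC50 taken from variable-slope sigmoidal dose-response fits of percent inhibition relative to DMSO control.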
row,IC50 [nM],Structure (SMILES)
1,< 100,"CS(=O)(=O)c1ccc(-c2ccc(Oc3[nH]nnc3C(=O)O)cc2)cc1 [Compound 401, 4-((4′-(methylsulfonyl)-[1,1′-biphenyl]-4-yl)oxy)-1H-1,2,3-triazole-5-carboxylic acid 2,2,2-trifluoroacetate]"

# Same assay, conditions: Table 2; read-out: Range (range of IC50 values calculated from the enzymatic assays)
row,IC50 [nM],Structure (SMILES)
1,< 100,"O=C(O)c1[nH]nnc1OC1CCN(c2cc(Cl)ccc2OC(F)(F)F)CC1 [Compound 367, 4-((1-(5-chloro-2-(trifluoromethoxy)phenyl)piperidin-4-yl)oxy)-1H-1,2,3-triazole-5-carboxylic acid 2,2,2-trifluoroacetate]"
2,< 100,"O=C(O)c1[nH]nnc1O[C@H]1CC[C@@H](c2ccc(N3CCC(F)(F)CC3)cc2)CC1 [Compound 368, 4-(((cis)-4-(4-(4,4-difluoropiperidin-1-yl)phenyl)cyclohexyl)oxy)-1H-1,2,3-triazole-5-carboxylic acid 2,2,2-trifluoroacetate]"
3,< 100,"O=C(O)c1[nH]nnc1OCC1C2CN(c3ccc(Cl)c(Cl)c3)CC12 (stereo not drawn) [Compound 369, 4-((3-(3,4-dichlorophenyl)-3-azabicyclo[3.1.0]hexan-6-yl)methoxy)-1H-1,2,3-triazole-5-carboxylic acid]"
4,> 10000,"CCN(CC)C(=O)OCOC(=O)c1[nH]nnc1O[C@H]1CC[C@H](c2ccc(OC(F)(F)F)cc2)CC1 [Compound 370, ((diethylcarbamoyl)oxy)methyl 4-(((trans)-4-(4-(trifluoromethoxy)phenyl)cyclohexyl)oxy)-1H-1,2,3-triazole-5-carboxylate]"
5,< 100,"O=C(O)c1[nH]nnc1SCC1C2CN(c3ccc(Cl)c(Cl)c3)CC12 (stereo not drawn) [Compound 373, 4-(((3-(3,4-dichlorophenyl)-3-azabicyclo[3.1.0]hexan-6-yl)methyl)thio)-1H-1,2,3-triazole-5-carboxylic acid]"
6,< 100,"O=C(O)c1[nH]nnc1Oc1cccc(OC2CCCC2)c1 [Compound 375, 4-(3-(cyclopentyloxy)phenoxy)-1H-1,2,3-triazole-5-carboxylic acid 2,2,2-trifluoroacetate]"

# Same assay, conditions: Table 3; read-out: Range (range of IC50 values calculated from the enzymatic assays)
row,IC50 [nM],Structure (SMILES)
1,100 to 1000,"O=C(O)c1[nH]nnc1CCN(Cc1ccc(Cl)cc1)Cc1ccc(Cl)cc1 [Compound 372, 4-(2-(bis(4-chlorobenzyl)amino)ethyl)-1H-1,2,3-triazole-5-carboxylic acid 2,2,2-trifluoroacetate]"
2,100 to 1000,"O=C(O)c1[nH]nnc1CCN(Cc1ccc(Cl)cc1)Cc1ccc(-c2ccc(OC(F)(F)F)cc2)cc1 [Compound 374, 4-(2-((4-chlorobenzyl)((4′-(trifluoromethoxy)-[1,1′-biphenyl]-4-yl)methyl)amino)ethyl)-1H-1,2,3-triazole-5-carboxylic acid 2,2,2-trifluoroacetate]"

# Same assay, conditions: Table 4; read-out: Range (range of IC50 values calculated from the enzymatic assays)
row,IC50 [nM],Structure (SMILES)
1,100 to 1000,"O=C(O)c1[nH]nnc1OC(c1ccccc1)C(O)c1ccc(Cl)cc1 (stereo not drawn) [Compound 378, 4-(2-(4-chlorophenyl)-2-hydroxy-1-phenylethoxy)-1H-1,2,3-triazole-5-carboxylic acid]"
2,< 100,"N#Cc1ccc(-c2ccc(Sc3nn[nH]c3C(=O)O)cc2)cc1 [Compound 389, 4-((4′-cyano-[1,1′-biphenyl]-4-yl)thio)-1H-1,2,3-triazole-5-carboxylic acid 2,2,2-trifluoroacetate]"
3,100 to 1000,"CC(OC(=O)c1[nH]nnc1O[C@H]1CC[C@H](c2ccc(OC(F)(F)F)cc2)CC1)OC(=O)C1CCCCC1 (stereo partly drawn) [Compound 391, 1-((cyclohexanecarbonyl)oxy)ethyl 4-(((trans)-4-(4-(trifluoromethoxy)phenyl)cyclohexyl)oxy)-1H-1,2,3-triazole-5-carboxylate]"
4,100 to 1000,"CCC(OC(=O)c1[nH]nnc1O[C@H]1CC[C@H](c2ccc(OC(F)(F)F)cc2)CC1)OC(=O)C1CCCCC1 (stereo partly drawn) [Compound 392, 1-((cyclohexanecarbonyl)oxy)propyl 4-(((trans)-4-(4-(trifluoromethoxy)phenyl)cyclohexyl)oxy)-1H-1,2,3-triazole-5-carboxylate]"
5,< 100,"O=C(O)c1[nH]nnc1O[C@H]1CC[C@H](c2cc(Cl)ccc2OC(F)(F)F)CC1 [Compound 393, 4-(((trans)-4-(5-chloro-2-(trifluoromethoxy)phenyl)cyclohexyl)oxy)-1H-1,2,3-triazole-5-carboxylic acid]"
6,< 100,"O=C(O)c1[nH]nnc1Oc1ccc(F)c(OCc2ccc(OC(F)(F)F)cc2)c1 [Compound 400, 4-(4-fluoro-3-((4-(trifluoromethoxy)benzyl)oxy)phenoxy)-1H-1,2,3-triazole-5-carboxylic acid 2,2,2-trifluoroacetate]"
7,< 100,"O=C(O)c1[nH]nnc1SC1CCN(c2cc(OC(F)(F)F)ccc2Cl)CC1 [Compound 402, 4-((1-(2-chloro-5-(trifluoromethoxy)phenyl)piperidin-4-yl)thio)-1H-1,2,3-triazole-5-carboxylic acid]"
8,< 100,"O=C(O)c1[nH]nnc1Oc1ccc(-c2ccc(N3CCCCC3)cc2)c(Cl)c1 [Compound 406, 4-((2-chloro-4′-(piperidin-1-yl)-[1,1′-biphenyl]-4-yl)oxy)-1H-1,2,3-triazole-5-carboxylic acid 2,2,2-trifluoroacetate]"
9,< 100,"O=C(O)c1[nH]nnc1Oc1ccc(-c2ccc(N3CCCCC3)cc2Cl)cc1 [Compound 407, 4-((2′-chloro-4′-(piperidin-1-yl)-[1,1′-biphenyl]-4-yl)oxy)-1H-1,2,3-triazole-5-carboxylic acid]"
10,< 100,"O=C(O)c1[nH]nnc1Oc1ccc(Cl)c(OCc2ccc(OC(F)(F)F)cc2)c1 [Compound 408, 4-(4-chloro-3-((4-(trifluoromethoxy)benzyl)oxy)phenoxy)-1H-1,2,3-triazole-5-carboxylic acid]"
11,< 100,"NS(=O)(=O)c1ccc(-c2ccc(Oc3nn[nH]c3C(=O)O)cc2)cc1 [Compound 413, 4-((4′-sulfamoyl-[1,1′-biphenyl]-4-yl)oxy)-1H-1,2,3-triazole-5-carboxylic acid]"
12,< 100,"O=C(O)c1[nH]nnc1Oc1ccc(Cl)c(OCc2ccc(C(F)(F)F)cc2)c1 [Compound 415, 4-(4-chloro-3-((4-(trifluoromethyl)benzyl)oxy)phenoxy)-1H-1,2,3-triazole-5-carboxylic acid]"
13,< 100,"N#Cc1ccc(Oc2nn[nH]c2C(=O)O)cc1OCc1ccc(OC(F)(F)F)cc1 [Compound 421, 4-(4-cyano-3-((4-(trifluoromethoxy)benzyl)oxy)phenoxy)-1H-1,2,3-triazole-5-carboxylic acid]"
14,< 100,"O=C(O)c1[nH]nnc1O[C@H]1C[C@@H]2CN(c3ccc(Cl)c(Cl)c3)C[C@@H]2C1 [Compound 427, 4-(((3aR,5s,6aS)-2-(3,4-dichlorophenyl)octahydrocyclopenta[c]pyrrol-5-yl)oxy)-1H-1,2,3-triazole-5-carboxylic acid]"
15,< 100,"O=C(O)c1[nH]nnc1S[C@H]1C[C@@H]2CN(c3ccc(Cl)c(Cl)c3)C[C@@H]2C1 [Compound 428, 4-(((3aR,5s,6aS)-2-(3,4-dichlorophenyl)octahydrocyclopenta[c]pyrrol-5-yl)thio)-1H-1,2,3-triazole-5-carboxylic acid]"
16,< 100,"O=C(O)c1[nH]nnc1OC1CCN(c2cc(OC(F)(F)F)ccc2Cl)CC1 [Compound 429, 4-((1-(2-chloro-5-(trifluoromethoxy)phenyl)piperidin-4-yl)oxy)-1H-1,2,3-triazole-5-carboxylic acid]"
17,< 100,"O=C(O)c1[nH]nnc1CSC1CCC2(CCCC2)CC1 [Compound 435, 4-((spiro[4.5]decan-8-ylthio)methyl)-1H-1,2,3-triazole-5-carboxylic acid]"
18,< 100,"N#CC1(c2ccc(OC(F)(F)F)cc2)CCC(Oc2nn[nH]c2C(=O)O)CC1 (stereo not drawn) [Compound 437, 4-((4-cyano-4-(4-(trifluoromethoxy)phenyl)cyclohexyl)oxy)-1H-1,2,3-triazole-5-carboxylic acid]"
19,< 100,"O=C(O)c1[nH]nnc1S[C@H]1CC[C@@H](c2ccc(N3CCCCC3)c(Cl)c2)CC1 [Compound 442-1, 4-(((cis)-4-(3-chloro-4-(piperidin-1-yl)phenyl)cyclohexyl)thio)-1H-1,2,3-triazole-5-carboxylic acid 2,2,2-trifluoroacetate]"
20,< 100,"O=C(O)c1[nH]nnc1S[C@H]1CC[C@H](c2ccc(N3CCCCC3)c(Cl)c2)CC1 [Compound 442-2, 4-(((trans)-4-(3-chloro-4-(piperidin-1-yl)phenyl)cyclohexyl)thio)-1H-1,2,3-triazole-5-carboxylic acid 2,2,2-trifluoroacetate]"
21,< 100,"C[C@]1(c2ccc(OC(F)(F)F)cc2)CC[C@H](Oc2nn[nH]c2C(=O)O)CC1 [Compound 443, 4-(((1r,4r)-4-methyl-4-(4-(trifluoromethoxy)phenyl)cyclohexyl)oxy)-1H-1,2,3-triazole-5-carboxylic acid]"

row,Structure (SMILES),IC50 [nM]
1,"COC1(c2ccc(OC(F)(F)F)cc2)CC(Oc2nn[nH]c2C(=O)O)C1 (stereo not drawn) [Compound 440, 4-(3-methoxy-3-(4-(trifluoromethoxy)phenyl)cyclobutoxy)-1H-1,2,3-triazole-5-carboxylic acid]",100 to 1000

# Same assay, conditions: Table 5; GO enzymatic assay; read-out: Range (range of IC50 values calculated from the enzymatic assays)
row,IC50 [nM],Structure (SMILES)
1,100 to 1000,"O=C(O)c1[nH]nnc1OC(c1ccccc1)C(O)c1ccc(Cl)cc1 (stereo not drawn) [Compound 378, 4-(2-(4-chlorophenyl)-2-hydroxy-1-phenylethoxy)-1H-1,2,3-triazole-5-carboxylic acid]"
2,100 to 1000,"O=C(O)c1[nH]nnc1OC(Cc1ccc(Cl)cc1)Cc1ccc(-c2ccc(OC(F)(F)F)cc2)cc1 (stereo not drawn) [Compound 385, 4-((1-(4-chlorophenyl)-3-(4′-(trifluoromethoxy)-[1,1′-biphenyl]-4-yl)propan-2-yl)oxy)-1H-1,2,3-triazole-5-carboxylic acid 2,2,2-trifluoroacetate]"

# From patent US11384055B2 (BIOMARIN PHARMACEUTICAL INC., priority 2017, dated 2022)
